Experimental data taken from patent US20260183274A1, “PDK1 REGULATORY COMPOUND AND COMPOSITION CONTAINING THE SAME” (PROVIBIO CO., LTD., priority 2024, published 2026).

Tests used:
[1] = system: HCT-116 colon cancer cell lines; experiment: Matrigel Invasion Assay, HCT-116; type: cell-based, human; conditions: 24 hours treatment, FIG. 30
Protocol: To evaluate the metastasis inhibitory efficacy of the compounds of the present invention on HCT-116 colon cancer cell lines, an Invasion Assay using Matrigel was performed to assess the cells' invasion ability.
First, Matrigel was thawed on ice in RPMI-1640 medium without FBS, then diluted with DMEM at a ratio of 1:20.
The diluted Matrigel mixture was applied to the upper chamber at 100 μl per well, and 750 μl of RPMI-1640 without FBS was added to the lower chamber.
The plates were then incubated at 37° C. for 1 hour to allow the Matrigel to solidify.
After coating, the Matrigel mixture in the upper chamber was removed using a pipette, and the chamber was washed with RPMI without FBS.
Human-derived colorectal cancer cell line HCT-116, obtained from the Korean Cell Bank, was cultured in RPMI-1640 medium containing 10% FBS.
Following stabilization, the cells were harvested using Trypsin-EDTA treatment, centrifuged at 1,200 rpm for 3 minutes, the supernatant was removed, and the cells were resuspended in the same medium, the medium in the lower chamber was replaced with 750 μl of RPMI-1640 supplemented with 10% FBS, and the cells were seeded into the upper chamber at a density of 5×10^4 cells/well.
The cells were cultured for 24 hours after attachment, and then the compounds according to the present invention (G078, G085, G086, G088, G089, PBK-2024-010, PBK-2025-010, PBK-2025-013, PBK-2025-016) and the control substance DMSO were diluted and added to the upper chamber after removing the medium.
Additionally, the medium in the lower chamber was replaced with fresh RPMI-1640 containing FBS, and the culture was continued.
After an additional 24 hours, the medium was removed, and 1 ml of methanol was added for 10 minutes to fix the cells.
Subsequently, 1 ml of Hematoxylin was added and reacted for 5 minutes, followed by 1 ml of Eosin, which was reacted for 30 seconds. The sample was then washed with distilled water (DW).
After staining was complete, any remaining cells in the upper chamber were removed. Finally, the infiltrated cells were observed under a microscope, photographed, and the degree of infiltration was analyzed.

[2] = system: T cells isolated from mouse spleens; experiment: T cell proliferation inhibition (CFSE flow cytometry, anti-CD3/anti-CD28 stimulation); type: cell-based; conditions: mouse spleen T cells, 3 days; for inhibition at 0.01 µM / inhibition at 0.1 µM / inhibition at 1 µM / inhibition at 10 µM / inhibition at 30 µM / inhibition at 50 µM: Mus musculus, T-cell, 72 h, read-out: Proliferation inhibition rate (%)
Method in brief: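 Proliferation inhibition (%) came from flow cytometry of CFSE dilution after 3 days' culture at 37 °C with compound (10 nM, 100 nM, 1, 10, 30, 50 μM; triplicate wells). Cells were magnetically purified T cells from C57BL/6 mouse spleens, 2×10^5 per well, stimulated with 0.5 μg/mL each anti-CD3 and anti-CD28.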

[3] = system: Human Colorectal Carcinoma cell line, HCT-116; experiment: Relative cell viability CCK-8, HCT-116; type: cell-based; conditions: Homo sapiens, HCT-116, 48 hours
Protocol: (§1) Human-derived breast cancer cell line MCF-7, human-derived lung cancer cell line A549, human-derived colorectal cancer cell line HCT-116, human pancreatic cancer cell line AsPC-1, glioblastoma cell line A172, and melanoma cell line Malme-3M were obtained from the Korean Cell Bank. gastric cancer cell line SNU-719, and bladder cancer cell line T24 were cultured in RPMI-1640 medium containing 10% FBS.
(§2) Following stabilization, the cells were harvested using Trypsin-EDTA treatment, centrifuged at 1,200 rpm for 3 minutes, the supernatant was removed, and the cells were resuspended in the same medium. They were then seeded into a 96-well plate (Costar 96-well cell culture plate, Corning) at 100 μL per well, and the conditions were adjusted as indicated in Table 5.
(§3) The cells were cultured in a 5% CO2 incubator at 37° C. for 24 hours, and after stabilization of the cells, each plate was washed with 200 μL of PBS per well and treated with 50 μL of culture medium per well.
(§4) After that, 10 μL of CCK-8 was added to each well, and the plate was incubated again at 37° C. in a 5% CO2 incubator for 2 hours.
(§5) In other words, when the survival rate of untreated cells (DMSO) is set at 100%, the relative cell survival rate in each group treated with the drug at different concentrations is indicated.

[4] = system: Human Bladder cancer cell, T24; experiment: Relative cell viability CCK-8, T24; type: cell-based; conditions: Homo sapiens, 48 h
Protocol: as §1, §2, §3, §4, §5

[5] = system: Human Pancreas Adenocarcinoma cell line, AsPC-1; experiment: Relative cell viability CCK-8, AsPC-1; type: cell-based; conditions: 48 hours; for viability at 1 µM: ASPC1, 1 μM; for viability at 10 µM: ASPC1, 10 μM; for viability at 30 µM: ASPC1, 30 μM; for viability at 50 µM: ASPC1, 50 μM
Protocol: as §1, §2, §3, §4, §5

[6] = system: Human B Lymphocyte cell line, SU-DHL-8; experiment: Relative cell viability CCK-8, SU-DHL-8; type: cell-based; conditions: for viability at 1 µM / viability at 10 µM / viability at 30 µM / viability at 50 µM: Homo sapiens, SU-DHL-8, 48 h; for viability at 1 µM: read-out: Relative cell viability (%), SU-DHL-8, 1 μM; for viability at 10 µM: read-out: Relative cell viability (%), SU-DHL-8, 10 μM; for viability at 30 µM: read-out: Relative cell viability (%), SU-DHL-8, 30 μM; for viability at 50 µM: read-out: Relative cell viability (%), SU-DHL-8, 50 μM
Method in brief: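 Cells grown in RPMI-1640 with 10% FBS, treated with compound at several concentrations, then given CCK-8 for 4 h at 37° C. Viability expressed as percent of DMSO-treated cells.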

[7] = system: Human Head and Neck cancer, Fadu; experiment: Relative cell viability CCK-8, Fadu; type: cell-based; conditions: Fadu cells, relative to untreated cells; for viability at 1 µM / viability at 10 µM / viability at 30 µM / viability at 50 µM: Homo sapiens, FaDu
Protocol: Human-derived head and neck cancer cell line Fadu and osteosarcoma cell line Saos-2 were cultured in MEM medium containing 10% FBS, 100 U/mL penicillin, and 100 μg/mL streptomycin.
as §2, §3, §4, §5

[8] = 48 hours, untreated (DMSO) = 100%
[9] = 1 μM, 48 hours, untreated (DMSO) = 100%
[10] = 10 μM, 48 hours, untreated (DMSO) = 100%
[11] = 30 μM, 48 hours, untreated (DMSO) = 100%
[12] = 50 μM, 48 hours, untreated (DMSO) = 100%

Row | Molecule | Proliferation inhibition rate (%) ([2]; compound 10 nM) | Proliferation inhibition rate (%) ([2]; compound 100 nM) | Proliferation inhibition rate (%) ([2]; compound 1 μM) | Proliferation inhibition rate (%) ([2]; compound 10 μM) | Proliferation inhibition rate (%) ([2]; compound 30 μM) | Proliferation inhibition rate (%) ([2]; compound 50 μM) | inhibition at 0.01 µM ([2]; compound 10 nM) [%] | inhibition at 0.1 µM ([2]; compound 100 nM) [%] | inhibition at 1 µM ([2]; compound 1 μM) [%] | inhibition at 10 µM ([2]; compound 10 μM) [%] | inhibition at 30 µM ([2]; compound 30 μM) [%] | inhibition at 50 µM ([2]; compound 50 μM) [%] | viability at 1 µM [6, 8] [%] | viability at 10 µM [6, 8] [%] | viability at 30 µM [6, 8] [%] | further results
1 | 12-(4-hydroxypiperazin-1-yl)dodecyl-N-(6-aminopurazin-2-yl) carboxamide [Compound 10] | 100.00 | 100.00 | 100.00 | 100.00 | 100.00 | 100.00 | – | – | – | – | – | – | – | – | – | Number of infiltrated cells (invasion) [1]: reduction in the number of infiltrated cells
2 | Nc1ncccc1C(=O)NCCCCCCCCCCCCN1CCSC1 [Compound 31, 2-Amino-N-(12-(thiazolidin-3-yl)dodecyl)nicotinamide] | – | – | – | – | – | – | 8.01 | 77.2 | 100 | 100 | 100 | 100 | 5.57 | 4.36 | 1 | viability at 1 µM ([3]; 1 μM): 11.6%; viability at 10 µM ([3]; 10 μM): 13.2%; viability at 30 µM ([3]; 30 μM): 12.3%; viability at 50 µM ([3]; 50 μM): 12%; viability at 1 µM [4]: 7.59%; viability at 10 µM [4]: 7.06%; viability at 30 µM [4]: 7.58%; viability at 50 µM [4]: 6.92%; viability at 1 µM [5]: 40.8%; viability at 10 µM [5]: 41%; viability at 30 µM [5]: 39.4%; viability at 50 µM [5]: 36.6%; viability at 50 µM [6, 8]: 0.23%
3 | CN(C)C1CCCCN(CCCCCCCCCCCCNC(=O)c2cccnc2N)C1 (stereo not shown) [Compound 45, 2-Amino-N-(12-(3-(dimethylamino)azepan-1-yl)dodecyl)nicotinamide] | – | – | – | – | – | – | 0.16 | 100 | 100 | 100 | 100 | 100 | 1.91 | 1.27 | 0.53 | viability at 1 µM [4]: 9.91%; viability at 10 µM [4]: 11%; viability at 30 µM [4]: 9.95%; viability at 50 µM [4]: 9.04%; Relative cell viability (%), SU-DHL-8 ([6]; human, 48 h, 50 µM): −1.31%; viability at 1 µM ([7]; 1 μM): 29.8%; viability at 10 µM ([7]; 10 μM): 74.1%; viability at 30 µM ([7]; 30 μM): 60%; viability at 50 µM ([7]; 50 μM): 18.2%
4 | Nc1ncccc1C(=O)NCCCCCCCCCCCCN1CCC(O)CC1 [Compound 47, 2-Amino-N-(12-(4-hydroxypiperidin-1-yl)dodecyl)nicotinamide] | – | – | – | – | – | – | -28.8 | 100 | 100 | 100 | 100 | 100 | 11.7 | 10 | 9.4 | viability at 50 µM [6, 8]: 8.33%; viability at 1 µM ([7]; 1 μM): 10%; viability at 10 µM ([7]; 10 μM): 19.9%; viability at 30 µM ([7]; 30 μM): 7.34%; viability at 50 µM ([7]; 50 μM): 5.02%
5 | Cl.Nc1ncccc1C(=O)NCCCCCCCCCCCCN1CC[C@H](N)C1 [Compound 50, (S)-2-Amino-N-(12-(3-aminopyrrolidin-1-yl)dodecyl) nicotinamide hydrochloride] | −7.48 | 100.00 | 100.00 | 100.00 | 100.00 | 100.00 | – | – | – | – | – | – | – | – | – | Relative cell viability (%), SU-DHL-8 [6, 9]: 9.20%; Relative cell viability (%), SU-DHL-8 [6, 10]: 8.18%; Relative cell viability (%), SU-DHL-8 [6, 11]: 6.18%; Relative cell viability (%), SU-DHL-8 [6, 12]: 4.31%; Relative cell viability (%) ([7]; 1 μM): 20.78%; Relative cell viability (%) ([7]; 10 μM): 26.55%; Relative cell viability (%) ([7]; 30 μM): 23.42%; Relative cell viability (%) ([7]; 50 μM): 7.05%
6 | Nc1ncccc1C(=O)NCCCCCCCCCCCCN1CCN(CCO)CC1 [Compound 54, 2-Amino-N-(12-(4-(2-hydroxyethyl)piperazin-1-yl)dodecyl) nicotinamide] | −43.03 | 100.00 | 100.00 | 100.00 | 100.00 | 100.00 | – | – | – | – | – | – | – | – | – | Relative cell viability (%), SU-DHL-8 [6, 9]: 6.42%; Relative cell viability (%), SU-DHL-8 [6, 10]: 4.05%; Relative cell viability (%), SU-DHL-8 [6, 11]: 3.26%; Relative cell viability (%), SU-DHL-8 [6, 12]: 2.23%; Relative cell viability (%) ([7]; 1 μM): 24.97%; Relative cell viability (%) ([7]; 10 μM): 33.03%; Relative cell viability (%) ([7]; 30 μM): 32.41%; Relative cell viability (%) ([7]; 50 μM): 18.65%
7 | Nc1ncccc1C(=O)NCCCCCCCCCCCCN1CCc2ccccc21 [Compound 89, 2-Amino-N-(12-(indolin-1-yl)dodecyl)nicotinamide] | – | – | – | – | – | – | -3.34 | 100 | 100 | 100 | 100 | 100 | 1.33 | 0.82 | 0.48 | viability at 1 µM [5]: 30.3%; viability at 10 µM [5]: 19.2%; viability at 30 µM [5]: 17.8%; viability at 50 µM [5]: 17.8%; Relative cell viability (%), SU-DHL-8 ([6]; human, 48 h, 50 µM): −0.86%
